Measured values as given in patent US8952042B2, “FXR (NR1H4) binding and activity modulating compounds” (Phenex Pharmaceuticals AG, priority 2009, dated 2015).

Tests used:
[1] = Pharmacokinetics in monkeys after oral administration 12 mg/kg; type: in vivo, Cynomolgus monkeys (Macacca mulatta); details: oral 12 mg/kg, Avg; for AUC(0-inf) / AUC(0-t) / Cmax / Tmax / half-life / MRT last / Vd/F: Cynomolgus, cynomolgus monkey, plasma; for MRT last: read-out: MRT0-t (converted); for Vd/F: read-out: Vz/F
Method: Compounds were applied perorally by gavage at 5 mg/kg each and by i.v. Injection at 1 mg/kg each to male 12 weeks old C57BI/6J or Sprague Dawley rats and plasma concentrations of the test items were determined by LC-MS/MS after time points as indicated. In the case of Cynomolgus monkeys ([…]), the dose was adjusted to 12 mg/kg p.o., no i.v. injection was given (FIG. 1a, 1b and Table 2).
A solution of 2.5 mg/mL of each test item was produced by diluting them in the vehicle, 0.5% Hydroxypropyl-Methylcellulose (w/v) in 20 mM phosphate buffered saline pH 7.4. The solutions were stirred overnight at room temperature and heated to 40° C. for 10 minutes, resulting in fully homogenous suspension. The application was performed by administrating the solution perorally to the mice, with an application volume of 5 mL/kg. For each time point three mice or rats were used. In case of the Cynomolgus monkeys blood samples were obtained by repeated vein puncture. Blood samples were treated with L1-heparin during collection procedure and stored on ice until centrifugation at 645 g (5 min, 4° C.). Plasma was harvested and kept at −20° C. until being assayed. To 50 μL of plasma sample […] acetonitrile containing an internal standard was added. Samples were vigorously shaken and centrifuged for 10 minutes at 6000 g and 20° C. An aliquot of the particle-free supernatant was transferred to 200 μL sampler vials and subsequently subjected to LC MS/MS for quantification.

[2] = biological target: T1, human FXR alpha ligand binding domain (Homo sapiens, UniProt Q96RI1); assay: FRET activity assay (ligand mediated cofactor peptide interaction, LANCE); type: biochemical; details: potency range
T1 construct: made in house; host or cells: E. coli BL21(DE3), vector pDEST15
T1 sequence (Q96RI1 187-472 isoform Q96RI1-2): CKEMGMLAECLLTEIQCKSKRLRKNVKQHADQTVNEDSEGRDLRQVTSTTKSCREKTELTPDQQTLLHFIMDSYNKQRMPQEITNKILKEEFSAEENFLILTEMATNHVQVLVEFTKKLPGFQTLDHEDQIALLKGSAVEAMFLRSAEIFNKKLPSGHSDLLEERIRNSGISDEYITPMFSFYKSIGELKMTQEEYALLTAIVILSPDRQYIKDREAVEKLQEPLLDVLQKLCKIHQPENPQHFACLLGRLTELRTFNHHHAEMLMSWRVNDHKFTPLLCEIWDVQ
Method: Determination of a ligand mediated cofactor peptide interaction to quantify ligand binding to the nuclear receptor FXR was performed as follows: Preparation of human FXR alpha ligand binding domain: The human FXRalpha LBD was expressed in E. coli strain BL21(DE3) as an N-terminally GST tagged fusion protein. The DNA encoding the FXR ligand binding domain was cloned into vector pDEST15 (Invitrogen). Expression was under control of an IPTG inducible T7 promoter. The amino acid boundaries of the ligand binding domain were amino acids 187-472 of Database entry NM_005123 (RefSeq). Expression and purification of the FXR-LBD: An overnight preculture of a transformed E. coli strain was diluted 1:20 in LB-Ampicillin medium and grown at 30° C. to an optical density of OD600=0.4-0.6. Gene expression was then induced by addition of 0.5 mM IPTG. Cells were incubated an additional 6 h at 30° C., 180 rpm. Cells were collected by centrifugation (7000×g, 7 min, room temperature). Per liter of original cell culture, cells were resuspended in 10 mL lysis buffer (50 mM Glucose, 50 mM Tris pH 7.9, 1 mM EDTA and 4 mg/mL lysozyme) and left on ice for 30 min. Cells were then subjected to sonication and cell debris removed via centrifugation (22000×g, 30 min, 4° C.). Per 10 mL of supernatant 0.5 mL prewashed Glutathione 4B sepharose slurry (Qiagen) was added and the suspension kept slowly rotating for 1 h at 4° C. Glutathione 4B sepharose beads were pelleted by centrifugation (2000×g, 15 sec, 4° C.) and washed twice in wash buffer (25 mM Tris, 50 mM KCl, 4 mM MgCl2 and 1M NaCl). The pellet was resuspended in 3 mL elution buffer per liter of original culture (elution buffer: 20 mM Tris, 60 mM KCl, 5 mM MgCl2 and 80 mM glutathione added immediately prior to use as powder). The suspension was left rotating for 15 min at 4° C., the beads pelleted and eluted again with half the volume of elution buffer than the first time. The eluates were pooled and dialysed overnight in 20 mM Hepes buffer (pH 7.5) containing 60 mM KCl, 5 mM MgCl2 as well as 1 mM dithiothreitol and 10% (v/v) glycerol. The protein was analysed by SDS-Page.
The method measures the ability of putative ligands to modulate the interaction between the purified bacterial expressed FXR ligand binding domain (LBD) and a synthetic biotinylated peptide based on residues 676-700 of SRC-1 (LCD2, 676-700). […] The ligand binding domain (LBD) of FXR was expressed as fusion protein with GST in BL-21 cells using the vector pDEST15. Cells were lysed by sonication, and the fusion proteins purified over glutathione sepharose (Pharmacia) according to the manufacturers instructions. For screening of compounds for their influence on the FXR-peptide interaction, the Perkin Elmer LANCE technology was applied. This method relies on the binding dependent energy transfer from a donor to an acceptor fluorophor attached to the binding partner of interest. For ease of handling and reduction of background from compound fluorescence LANCE technology makes use of generic fluorophore labels and time resolved detection Assays were done in a final volume of 25 μL in a 384 well plate, in a Tris-based buffer (20 mM Tris-HCl pH 7.5; 60 mM KCl, 5 mM MgCl2; 35 ng/μL BSA), containing 20-60 ng/well recombinantly expressed FXR-LBD fused to GST, 200-600 nM N-terminally biotinylated peptide, representing SRC1 aminoacids 676-700, 200 ng/well Streptavidin-xIAPC conjugate (Prozyme) and 6-10 ng/well Eu W1024—antiGST (Perkin Elmer). DMSO content of the samples was kept at 1%. After generation of the assay mix and diluting the potentially FXR modulating ligands, the assay was equilibrated for one hour in the dark at room temperature in FIA-plates black 384 well (Greiner). The LANCE signal was detected by a Perkin Elmer VICTOR2V™ Multilabel Counter. The results were visualized by plotting the ratio between the emitted light at 665 and 615 nm.

AUC(0-inf) [1] [µg·h/mL] | AUC(0-t) [1] [µg·h/mL] | Cmax [1] [µg/mL] | Tmax [1] [h] | half-life [1] [h] | MRT last [1] [h] | Vd/F [1] [L/kg] | CLz/F [1] [L/h/kg] | EC50 [2] [µM] | Compound
30.7 | 30.5 | 7.34 | 1.42 | 2.92 | 4.31 | 1.93 | 0.42 | 0.01 to 0.1 | O=C(O)c1cccc(C2CC2c2ccc(OCc3c(-c4c(Cl)cccc4Cl)noc3C3CC3)cc2Cl)c1 (racemic) [Example 4, 3-(2-(2-chloro-4-((5-cyclopropyl-3-(2,6-dichlorophenyl)isoxazol-4-yl)methoxy)phenyl)-cyclopropyl)benzoic acid]
15.1 | 14.5 | 2.22 | 2.92 | 4.54 | 6.11 | 5.19 | 0.78 | > 0.1 | O=C(O)c1ccc(C2CC2c2ccc(OCc3c(-c4c(Cl)cccc4Cl)noc3C3CC3)cc2Cl)cc1 (racemic) [Example 12, 4-(2-(2-chloro-4-((5-cyclopropyl-3-(2,6-dichlorophenyl)isoxazol-4-yl)methoxy)phenyl)cyclopropyl)benzoic acid]
